Source: PMC3673949, “Small Molecule R1498 as a Well-Tolerated and Orally Active Kinase Inhibitor for Hepatocellular Carcinoma and Gastric Cancer Treatment via Targeting Angiogenesis and Mitosis Pathways” (PLoS ONE, 2013)

What was measured:
[1] = tested on: phospho-Aurora A (T288); assay: Immunohistochemistry of BEL-7402 tumors, Aurora kinase A activity marker; assay type: in vivo, BALB/C nu/nu nude mice; details: BEL-7402 tumors from efficacy study
Method: The 8 µm paraffin embedded tumor tissue slides prepared from tumor of in vivo efficacy studies were heated in a dry oven at 60°C for 1 hour, then deparaffinized and hydrolyzed by Leica autostainer XL ST5010 at room temperature. Antigen retrieval was carried out at 95∼99°C in citrate buffer (0.01 M, pH 6.0) heated by a medical microwave at 92–98°C for 5 min, then cooled down to room temperature. Then peroxidase-blocking reagent (DAKO, DK-2600, Glostrup Denmark) was applied to quench the endogenous peroxidase. The slides were incubated in blocking serum for 20 min, then covered by 100 µL phospho-Aurora A (Thr288) (C39D8) rabbit mAb (CST #3079, 1∶200 in TBS/T) or rabbit anti-human CD31 polyclonal antibody (Santa Cruz Biotech, sc-8306, Santa Cruz, CA, USA; 1∶200 in TBS/T) at 4°C overnight, then incubated in 100 µL DAKO Envision+/HRP, rabbit/mouse after being washed thoroughly with TBS. One hundred micro liters of substrate-chromogenic solution (DAB) were applied to the slides and incubated at room temperature for 10 min. The slides were rinsed gently with tap water for 15 min. Counterstain and dehydration was performed by XL ST5010 at room temperature. Finally, the slides were mounted with Permount mounting medium (Fisher Scientific, Miami, FL).

[2] = tested on: SGC-7901 xenograft; assay: Xenograft efficacy study; assay type: in vivo, BALB/C nu/nu nude mice
[3] = tested on: BEL-7402 xenograft; assay: Xenograft efficacy study; assay type: in vivo, BALB/C nu/nu nude mice
[4] = tested on: cyclin-dependent kinase 2 (CDK2); parameters: method as in PMID 20832307; details: previously identified; cited from earlier work
[5] = tested on: 402 kinases; assay: KINOMEScan kinase affinity profiling; assay type: binding; details: 1 µM, ATP around Km of each kinase; 359 wild-type kinases and 43 mutants
Method: The affinity of R1498 against 402 kinases was determined by KINOMEScan® (Ambit Biosciences, San Diego, CA) and data were presented as dissociation constant (Kd) values. The inhibition on kinase activity of Aurora kinases and VEGFR2 was further characterized by Z’-Lyte kinase activity assays under corresponding ATP concentrations.

[6] = tested on: CNE-2 xenograft
Source text: The use and care of experimental animal was approved by Institutional Animal Care and Use Committee, Roche R&D Center (China). Tumor cells were inoculated into the right flank of BALB/C nu/nu female nude mice (5∼6 weeks, 16∼18 g, obtained from Sino-British SIPPR/BK Lab. Animal Ltd, Shanghai, China) at optimal density based on our in-house validation study. After the tumor was established and reached 100∼150 mm^3, the mice were randomized into ten mice per group and received treatment according to the schedule. The tumor growth was recorded three times a week with the measurement of length (L) and width (W) by caliper, and calculated as tumor volume (TV, mm^3) = 0.5*L*W*W (mm). […] The tumor regression of individual mouse was defined - the tumor volume at the end was less than the tumor volume when treatment was initiated.

[7] = Dose range finding and toxicokinetic study; assay type: in vivo; details: for MTD at 2 week / AUC(0-t): po
Method: Dose range finding and toxicokinetic study was carried out in rats and Beagle dogs based on in vitro metabolites identification. Wistar rats (male: 3, female 3 in each group, from Vital River, Beijing, China) were fasted overnight, and then received test articles as 0, 6.25, 50 and 100 mg/kg twice a day per oral gavage for a 14-day continuous regimen. Motility observation was applied on a daily bases to find the maximum tolerant dose for the animals. The animals were sacrificed on d14, and the following toxicology observation were carried out including body weight changes, clinical observation, gross necropsy, hematology chemistry and histopathology. On day 1 and day 14, blood samples were obtained via jugular vein puncture from all animals (if alive, using EDTA-K2 tubes). Samples were mixed gently and placed on crushed wet-ice until centrifugation, which was carried out immediately. The samples were centrifuged for approximately 15 minutes at 4°C 2,700 rpm. The resultant plasma was separated, transferred to uniquely labeled clear polypropylene tubes and frozen immediately over solid carbon dioxide (dry ice) until transferred to approximately −80°C. Each animal was bled at the following time points: approximately 5 min, 15 min, 30 min, 1, 2, 4, 8 and 24 hours post first dose on the specific day. The drug concentrations in the plasma were determined by LC-MS/MS. The pharmacokinetic analysis was performed using WinNonlin software (Version 5.2, Pharsight Corporation, CA, USA), and the pharmacokinetic parameters were calculated using a Non-compartmental model method.

[8] = tested on: gastric cancer cell lines; assay: Cell proliferation assay (CCK-8, 72 h); assay type: cell-based; details: Homo sapiens, gastric cancer cell line panel, read-out: overall mean IC50
Method: (§1) Each cell line was seeded in a 96-well tissue culture plate (Corning, NY) at a predetermined density in 180 µL complete medium, attached overnight and treated by compound for another 72 h. Then the medium was discarded and replaced with 10% CCK-8 (Dojindo, Kumamoto, Japan) in complete medium, then incubated the plates for another 2 h. The OD450 was measured with SpectraMAX 190 spectrophotometer (MDS, Sunnyvale, CA). A background absorbance of ODblank was subtracted from all wells.

[9] = tested on: hepatocellular carcinoma cell lines; assay: Cell proliferation assay (CCK-8, 72 h); assay type: cell-based; details: Homo sapiens, hepatocellular carcinoma cell line panel, read-out: overall mean IC50
Method: as §1

[10] = tested on: nasopharyngeal carcinoma cell lines; assay: Cell proliferation assay (CCK-8, 72 h); assay type: cell-based; details: Homo sapiens, nasopharyngeal carcinoma cell line panel, read-out: overall mean IC50
Method: as §1

[11] = tested on: MGC-803 xenograft; assay: Xenograft efficacy study; assay type: in vivo, BALB/C nu/nu nude mice; details: MGC-803, 25 mg/kg twice a day per oral gavage

COc1ccc2c(c1)C(c1ccccc1Cl)=Nc1c(n[nH]c1C)N2 [R1498]
phospho-Aurora A (T288) staining in tumors [1]: weaker staining | Final TGI% ([2]; SGC-7901, 25 mg/kg twice a day per oral gavage, day of study termination (Table S2)): 100% | Body weight changes% ([2]; SGC-7901, 25 mg/kg twice a day per oral gavage, before vs after treatment): 2% | Tumor Regression ([2]; SGC-7901, 25 mg/kg twice a day per oral gavage, mice with regression/group): 5/10 | Final TGI% ([2]; SGC-7901, 6.25 mpk, bid, PO): 69% | Final TGI% ([2]; SGC-7901, 12.5 mpk, bid, PO): 83% | Final TGI% ([3]; BEL-7402, 25 mg/kg twice a day per oral gavage, day of study termination): 102% | Body weight changes% ([3]; BEL-7402, 25 mg/kg twice a day per oral gavage, before vs after treatment): 2% | Tumor Regression ([3]; BEL-7402, 25 mg/kg twice a day per oral gavage, mice with regression/group): 8/10 | Final TGI% ([3]; BEL-7402, 3.125 mpk, bid, PO): 56% | Final TGI% ([3]; BEL-7402, 6.25 mpk, bid, PO): 69% | Final TGI% ([3]; BEL-7402, 12.5 mpk, bid, PO): 90% | CDK2 inhibition [4]: weak | number of kinases with inhibition rate over 80% out of 402 kinases [5]: 39 | Body weight changes% ([6]; CNE-2, 25 mg/kg twice a day per oral gavage, before vs after treatment): 16.3% | Tumor Regression ([6]; CNE-2, 25 mg/kg twice a day per oral gavage, mice with regression/group): 0/10 | Final TGI% ([6]; CNE-2, 25 mg/kg twice-daily per oral gavage, day of study termination): 90% | dose at which body weight loss began ([7]; female rats): 12.5 mg/kg | MTD AUC / ED90 AUC ([7]; female, Wistar, rat, in vivo): 8.1 | MTD at 2 week ([7]; female, Wistar, rat, in vivo): 50 mg/kg | AUC(0-t) ([7]; female, Wistar, rat, in vivo, 50 mg/kg): 211 µg·h/mL | dose at which body weight loss began ([7]; male rats): 100 mg/kg | MTD at 2 week ([7]; male, Wistar, rat, in vivo): > 100 mg/kg | AUC(0-t) ([7]; male, Wistar, rat, in vivo, 100 mg/kg): > 155 µg·h/mL | IC50 [8]: 7.55 µM | IC50 [9]: 7.81 µM | IC50 [10]: 30.1 µM | Final TGI% ([11]; day of study termination): 99% | Body weight changes% ([11]; before vs after treatment): 14% | Tumor Regression ([11]; mice with regression/group): 5/10
